This note sets out measurements from PMC6288363, “A Novel Selective JAK2 Inhibitor Identified Using Pharmacological Interactions” (Frontiers in Pharmacology, 2018).

One assay concerns the target T1, JAK2 (Homo sapiens, UniProt O60674).
T1 construct: JH1 domain
Nature of the assay: KINOMEscan bead-based competition Kd; also Z'LYTE kinase assay, […] inhibition at […]. The class given is binding.

A further assay concerns the target T2, JAK3 (Homo sapiens, UniProt P52333).
T2 sequence (P52333 1-1124): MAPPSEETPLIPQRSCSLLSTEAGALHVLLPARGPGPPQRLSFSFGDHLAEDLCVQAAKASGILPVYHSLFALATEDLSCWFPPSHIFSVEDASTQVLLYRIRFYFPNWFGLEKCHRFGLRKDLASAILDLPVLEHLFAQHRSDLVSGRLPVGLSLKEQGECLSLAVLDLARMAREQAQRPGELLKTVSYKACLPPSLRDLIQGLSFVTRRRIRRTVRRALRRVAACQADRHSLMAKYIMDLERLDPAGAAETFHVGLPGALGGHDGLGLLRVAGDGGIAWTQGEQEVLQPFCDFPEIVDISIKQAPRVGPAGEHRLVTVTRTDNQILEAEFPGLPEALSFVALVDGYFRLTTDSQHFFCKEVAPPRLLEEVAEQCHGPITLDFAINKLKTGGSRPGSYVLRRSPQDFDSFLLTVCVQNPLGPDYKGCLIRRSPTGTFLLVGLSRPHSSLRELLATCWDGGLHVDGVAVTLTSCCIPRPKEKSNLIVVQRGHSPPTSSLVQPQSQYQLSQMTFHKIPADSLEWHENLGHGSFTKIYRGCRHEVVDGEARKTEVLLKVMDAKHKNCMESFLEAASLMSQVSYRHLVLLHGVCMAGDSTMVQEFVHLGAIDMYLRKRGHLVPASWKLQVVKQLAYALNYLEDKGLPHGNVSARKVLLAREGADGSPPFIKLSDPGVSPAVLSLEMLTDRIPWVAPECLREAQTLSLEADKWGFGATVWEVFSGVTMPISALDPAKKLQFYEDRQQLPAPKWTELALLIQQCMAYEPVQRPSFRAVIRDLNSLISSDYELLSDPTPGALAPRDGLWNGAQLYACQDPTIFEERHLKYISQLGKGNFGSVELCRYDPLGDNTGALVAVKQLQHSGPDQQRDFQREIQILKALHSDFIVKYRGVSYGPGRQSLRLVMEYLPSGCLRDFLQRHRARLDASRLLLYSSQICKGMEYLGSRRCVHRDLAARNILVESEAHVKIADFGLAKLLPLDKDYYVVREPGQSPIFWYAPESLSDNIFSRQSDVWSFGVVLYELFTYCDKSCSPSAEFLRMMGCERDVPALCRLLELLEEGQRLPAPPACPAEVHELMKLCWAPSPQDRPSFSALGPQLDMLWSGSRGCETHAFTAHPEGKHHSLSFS
Nature of the assay: KINOMEscan bead-based competition Kd. The class given is binding.

T1 sequence (O60674 840-1132 limits assumed): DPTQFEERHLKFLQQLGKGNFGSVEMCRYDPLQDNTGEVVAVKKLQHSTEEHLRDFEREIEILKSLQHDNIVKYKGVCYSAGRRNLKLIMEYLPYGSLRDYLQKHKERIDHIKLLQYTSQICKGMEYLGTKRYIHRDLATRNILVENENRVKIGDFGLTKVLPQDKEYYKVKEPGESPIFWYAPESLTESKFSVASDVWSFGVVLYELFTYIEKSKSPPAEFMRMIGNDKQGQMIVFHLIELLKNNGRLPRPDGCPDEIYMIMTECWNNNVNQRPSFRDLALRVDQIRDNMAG

Regarding `CCN(CC)CC[C@H](CNc1ccnc2cc(Cl)ccc12)c1ccc(O)cc1` [NSC13626], the Kd on JAK2 was 6.6 µM; at JAK3, 4.6 µM.
